Literature values in patent publication US9006292B2, “Metadichol® liquid and gel nanoparticle formulations” (NanoRx, Inc., priority 2013, dated 2015).
Read-outs that look alike come from different tables or passages of the source.

Assays:
[1] = topical, phase I trial of 14 patients
RDW = details: 6 months
Lp(a) = details: in vivo

C=C1/C(=C\C=C2/CCC[C@]3(C)[C@@H]([C@H](C)CCCC(C)(C)O)CC[C@@H]23)C[C@@H](O)C[C@@H]1O [1,25-dihydroxycholecalciferol]
growth of P. falciparum in culture (P. falciparum; low doses): inhibitory | prevention of chemotherapy-induced alopecia [1]: failed to show efficacy

C=C1/C(=C\C=C2/CCC[C@]3(C)[C@@H]([C@H](C)CCCC(C)C)CC[C@@H]23)C[C@@H](O)C[C@@H]1O [1-hydroxy Vitamin D-3]
growth of P. falciparum in culture (P. falciparum; low doses): inhibitory

C=C1CC[C@H](O)C/C1=C/C=C1\CCC[C@]2(C)[C@@H]([C@H](C)CCCC(C)(C)O)CC[C@@H]12 [25-hydroxy vitamin D3]
growth of P. falciparum in culture (P. falciparum; low doses): inhibitory

COCCc1ccc(OCC(O)CNC(C)C)cc1 (stereo not drawn) [Metoprolol]
RDW (RDW; 100 mg/day, n=35, from 15.6): 15.45

OC(CNCC(O)C1CCc2cc(F)ccc2O1)C1CCc2cc(F)ccc2O1 (stereo not drawn) [Nebivolol]
RDW (RDW; 5 mg/d, n=37, from 15.8): 15

C=C1CC[C@H](O)C/C1=C/C=C1\CCC[C@]2(C)[C@@H]([C@H](C)/C=C/[C@H](C)C(C)C)CC[C@@H]12 [vitamin D-2]
growth of P. falciparum in culture (P. falciparum; higher levels): inhibitory

C=C1CC[C@H](O)C/C1=C/C=C1\CCC[C@]2(C)[C@@H]([C@H](C)CCCC(C)C)CC[C@@H]12 [vitamin D-3]
growth of P. falciparum in culture (P. falciparum; higher levels): inhibitory

Human growth hormone: Human growth hormone, cited as raising Lp(a)
increase of Lp(a) (Lp(a)): up to 120%
